# Measurements reported in PMC5510229, “BCAT1 controls metabolic reprogramming in activated human macrophages and is associated with inflammatory diseases” (Nature Communications, 2017).
# pIC50: −log10 of the molar value.
# Assays:
# [1] = tested on: human monocyte-derived macrophages (hMDMs); test: qRT-PCR / Western blot of activation markers in hMDMs; type: cell-based
# recombinant human BCAT1 = biological target: T1, recombinant human BCAT1 (Homo sapiens, UniProt P54687); test: BCAT1 aminotransferase enzymatic assay (continuous fluorometric); type: biochemical; details: 100 ng recombinant protein
# T1 construct: purchased Abcam
# T1 sequence (P54687 1-386): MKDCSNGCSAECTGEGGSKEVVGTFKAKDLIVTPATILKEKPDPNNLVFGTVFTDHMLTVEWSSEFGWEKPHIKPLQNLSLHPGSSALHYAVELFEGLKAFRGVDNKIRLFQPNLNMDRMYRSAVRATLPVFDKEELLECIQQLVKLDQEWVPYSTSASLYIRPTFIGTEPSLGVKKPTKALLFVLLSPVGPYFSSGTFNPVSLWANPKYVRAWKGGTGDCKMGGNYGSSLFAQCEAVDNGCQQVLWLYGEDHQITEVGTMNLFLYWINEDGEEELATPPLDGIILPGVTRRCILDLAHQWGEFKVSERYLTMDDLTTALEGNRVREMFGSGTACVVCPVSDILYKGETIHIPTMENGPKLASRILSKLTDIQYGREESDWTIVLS
# Source text: To gain more insights into the role of BCAT enzymes in macrophages, we set out to investigate these in human monocyte-derived macrophages (hMDMs) by subjecting these cells to RNA-sequencing (Fig. 1a). […] To examine the role of BCAT1 in macrophage metabolism and inflammatory diseases, we identified a novel BCAT1 inhibitor, ERG240, using molecular modelling approaches based on the X-ray crystal structures of BCAT1 (ref. [22]). ERG240 is a water-soluble structural analogue of leucine (Fig. 1b). Its ability to suppress the BCAT1 aminotransferase activity was measured in a continuous fluorometric assay (ref. [23] and see Supplementary Methods). […]
# Figure 1 BCAT1 expression and inhibition in human macrophages. […] (d) Relative expression of IRG1, HIF1A and IL1B measured by qRT-PCR in control, ERG240-treated (20 mM, 3 h), LPS treated (100 ng ml^−1, 3 h), and LPS+ERG240 treated (LPS, 100 ng ml^−1; ERG240, 20 mM for 3 h) hMDMs. ns, non-significant. […]
# Finall y, th e libraries were size selected using AM Pure XP Beads (Beckman Coulter) purified and their quality was checked using Agilent 2100 Bioanalyzer. Samples were randomized to avoid batch effects and multiplexed libraries wer e run on a single lan e (6 samples/lane) of the HiSeq 2500 platform (Illumina) to generate 100bp paired-end reads. […]
# respectivel y. RNA-seq reads were aligned to human (hg19) or mouse (mm10) reference genomes using tophat2. […]
# [2] = LPS 100 ng/ml + ERG240 20 mM, 3 h, qRT-PCR
smiles,measurement,setting,value
CC(=O)C(C)CCC(=O)O (centres unmarked) [ERG240],NOS2 expression levels,[1]; [2],significantly reduced
same,TNF expression levels,[1]; [2],significantly reduced
same,"IL-1β levels, long-term exposure","[1]; LPS + ERG240 20 mM, 24 h, Western blot",reduced IL-1β levels
same,IRG1 expression in TNF-stimulated human macrophages,"[1]; TNF 2 ng/ml, ERG240 20 mM, 8 h",comparable inhibitory effect
same,pIC50,recombinant human BCAT1,9.00 to 10.00
